Measured values reported in paper PMC2365111, “Cytotoxicity of Poly(Phenolic)Sulfonates and Their Sodium Salts in L1210 Lymphoid Leukemia Cells” (Metal-Based Drugs, 1998).

How the values were obtained:
IMP dehydrogenase = IMP dehydrogenase activity, L1210; type: biochemical, mouse; conditions: 60 min, N=6
Source text: CYTOTOXlCITY OF POLY(PHENOLIC)SULFONATES AND THEIR SODIUM SALTS IN L1210 LYMPHOID LEUKEMIA CELLS Fei Wang, Amy E. Warren, Cheryl R. Barnes and Iris H. Hall* Division of Medicinal Chemistry and Natural Products University of North Carolina Chapel Hill, N.C. […] Because ofthese properties it was surmised that these poly(phenolic)sulfonated compounds may have antineoplastic activity. METHODS Source of Compounds Test compounds were supplied by GeneLabs, Inc. [Redwood City, CA [Table 1]. Radioisotopes were obtained from New England Nuclear [Dupont, Boston, MA]. Substrates and co-factors were purchased om Sigma Chemical Co., [St Louis, MO]. Pentosan sulfate and other antineoplastic standards were obtained from Sigma Chemical Co. Tumor lines were obtained from American Type Culture Collection [Rockville, MD]. 147 Vol. 5, No. 3, 1998 Cytotoxicity ofSodium Poly(Phenolic)Sulfonates in L1210 Lymphoid Leukemia Cells Table 1 Structures of Poly(phenolic)sulfonate Compounds O2R" n Compound R' R" n MW # G1-2041 H OH 8 1489.46 G1-2029 H OH 6 1117.09 G1-2030 H OH 4 744.73 GI-2021 CH3 ONa 8 1777.5 G1-2057 CH3 ONa 4 888.75 GI-2158 CH3 ONa 6 1333.13 GI-2063 OCH3 ONa 8 2001.65 G1-2042 OAc ONa 8 2017.73 Cytotoxicity Poly(phenolic)sulfonates were tested for cytotoxic activity by homogenizing drug in 0.05% Tween 80/H20 to give a mg/ml stock concentration. These solutions were sterilized by passing them through an acrodisc ([…]). The following cell lines were maintained by literature techniques: murine L1210 lymphoid leukemia, P-388 lymphocytic leukemia, rat UMR 106 osteosarcoma, human Tmolt3 acute lymphoblastic T cell leukemia, HUT-8 lymphoma, HeLa-S suspended cervical carcinoma, HeLa solid cervical carcinoma, KB epidermoid nasopharynx, A431 epidermoid carcinoma, colorectal adenocarcinoma SW480, HCT-8 ileocecal adenocarcinoma, lung bronchogenic MB-9812, A549 lung carcinoma, and glioma HS683. Geran et al.'s protocol was used to assess the cytotoxicity of the compounds and standards in each cell line. Cell numbers were determined by the trypan blue exclusion technique. Solid tumor cytotoxicity was determined by Leibovitz et al. 's method utilizing crystal violeeOH and read at 562 nm (Molecular Devices). Values for cytotoxicity were expressed as EDs0 g/ml, i.e. the concentration ofthe compound inhibiting 50% ofcell growth. A value of less than 4 µg/ml was required for significant activity ofgrowth inhibition. Incorporation Studies Incorporation of labeled precursors into 3H-DNA, 3H -RNA and 3H -protein for 10 L1210 cells was obtained. The concentration response for inhibition of DNA, RNA and protein synthesis of the compounds at 25, 50 and 100 l.tM was determined for 60 min incubations. Incorporation of 14C -glycine (53.0 mCi/mmol) into purines was obtained by the method of Cadman et al.[12]. Incorporation of 4C- formate (53.0 mCi/mmol) into pyrimidines was determined by the method of Christopherson et al.[13]. […] DNA polymerase Ot activity was determined in cytoplasmic extracts isolated by Eichler et aL's method. […] Messenger-, ribosomal- and transfer-RNA polymerase enzymes were isolated with different concentrations of ammonium sulfate; individual RNA polymerase activities were determined using 3H -UTP 16,17]. Ribonucleoside reductase activity was measured using 4C -CDP with dithioerythritol. […]

Ribonucleoside reductase = target: T1, Ribonucleoside reductase (Mus musculus, UniProt P07742); experiment: Ribonucleoside reductase activity, L1210; type: biochemical; conditions: 60 min, N=6
T1 construct: preparing the appropriate L1210 cell homogenates or subcellular fractions; endogenous in cells; host or cells: L1210 murine lymphoid leukemia cells, homogenate or subcellular fraction
T1 sequence (P07742 1-792): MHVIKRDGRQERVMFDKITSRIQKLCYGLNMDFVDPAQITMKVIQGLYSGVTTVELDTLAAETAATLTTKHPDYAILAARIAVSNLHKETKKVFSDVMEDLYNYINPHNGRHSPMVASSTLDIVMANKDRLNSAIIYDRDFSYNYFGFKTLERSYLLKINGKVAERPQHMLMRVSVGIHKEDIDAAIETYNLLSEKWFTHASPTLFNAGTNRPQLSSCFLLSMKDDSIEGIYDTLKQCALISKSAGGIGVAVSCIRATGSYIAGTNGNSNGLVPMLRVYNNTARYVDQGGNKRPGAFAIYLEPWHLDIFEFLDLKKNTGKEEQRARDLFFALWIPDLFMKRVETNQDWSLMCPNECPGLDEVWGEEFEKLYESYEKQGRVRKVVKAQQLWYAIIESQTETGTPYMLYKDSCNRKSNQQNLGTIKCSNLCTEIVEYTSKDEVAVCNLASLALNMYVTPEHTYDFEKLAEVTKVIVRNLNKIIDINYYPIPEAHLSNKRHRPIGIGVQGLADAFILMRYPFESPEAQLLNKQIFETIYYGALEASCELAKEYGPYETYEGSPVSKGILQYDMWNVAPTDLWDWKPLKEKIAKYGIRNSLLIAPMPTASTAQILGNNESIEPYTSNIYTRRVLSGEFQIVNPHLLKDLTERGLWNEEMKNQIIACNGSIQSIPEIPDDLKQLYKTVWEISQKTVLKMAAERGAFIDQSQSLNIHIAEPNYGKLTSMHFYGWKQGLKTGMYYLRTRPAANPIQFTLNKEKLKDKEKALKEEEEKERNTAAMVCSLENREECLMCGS
T1 sequence (P11157 1-390 partner): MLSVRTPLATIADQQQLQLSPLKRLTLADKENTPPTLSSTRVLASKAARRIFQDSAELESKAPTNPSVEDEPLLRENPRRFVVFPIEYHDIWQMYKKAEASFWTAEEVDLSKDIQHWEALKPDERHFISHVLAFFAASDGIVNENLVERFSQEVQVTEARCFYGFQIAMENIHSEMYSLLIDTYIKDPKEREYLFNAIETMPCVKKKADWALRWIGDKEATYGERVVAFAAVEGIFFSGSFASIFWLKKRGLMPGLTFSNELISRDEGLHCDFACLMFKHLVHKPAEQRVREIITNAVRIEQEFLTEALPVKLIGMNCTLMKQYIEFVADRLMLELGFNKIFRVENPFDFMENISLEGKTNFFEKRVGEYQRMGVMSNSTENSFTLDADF
Source text: (§1) CYTOTOXlCITY OF POLY(PHENOLIC)SULFONATES AND THEIR SODIUM SALTS IN L1210 LYMPHOID LEUKEMIA CELLS Fei Wang, Amy E. Warren, Cheryl R. Barnes and Iris H. Hall* Division of Medicinal Chemistry and Natural Products University of North Carolina Chapel Hill, N.C. […] Because ofthese properties it was surmised that these poly(phenolic)sulfonated compounds may have antineoplastic activity. METHODS Source of Compounds Test compounds were supplied by GeneLabs, Inc. [Redwood City, CA [Table 1]. Radioisotopes were obtained from New England Nuclear [Dupont, Boston, MA]. Substrates and co-factors were purchased om Sigma Chemical Co., [St Louis, MO]. Pentosan sulfate and other antineoplastic standards were obtained from Sigma Chemical Co. Tumor lines were obtained from American Type Culture Collection [Rockville, MD]. 147 Vol. 5, No. 3, 1998 Cytotoxicity ofSodium Poly(Phenolic)Sulfonates in L1210 Lymphoid Leukemia Cells Table 1 Structures of Poly(phenolic)sulfonate Compounds O2R" n Compound R' R" n MW # G1-2041 H OH 8 1489.46 G1-2029 H OH 6 1117.09 G1-2030 H OH 4 744.73 GI-2021 CH3 ONa 8 1777.5 G1-2057 CH3 ONa 4 888.75 GI-2158 CH3 ONa 6 1333.13 GI-2063 OCH3 ONa 8 2001.65 G1-2042 OAc ONa 8 2017.73 Cytotoxicity Poly(phenolic)sulfonates were tested for cytotoxic activity by homogenizing drug in 0.05% Tween 80/H20 to give a mg/ml stock concentration. These solutions were sterilized by passing them through an acrodisc ([…]). The following cell lines were maintained by literature techniques: murine L1210 lymphoid leukemia, P-388 lymphocytic leukemia, rat UMR 106 osteosarcoma, human Tmolt3 acute lymphoblastic T cell leukemia, HUT-8 lymphoma, HeLa-S suspended cervical carcinoma, HeLa solid cervical carcinoma, KB epidermoid nasopharynx, A431 epidermoid carcinoma, colorectal adenocarcinoma SW480, HCT-8 ileocecal adenocarcinoma, lung bronchogenic MB-9812, A549 lung carcinoma, and glioma HS683. Geran et al.'s protocol was used to assess the cytotoxicity of the compounds and standards in each cell line. Cell numbers were determined by the trypan blue exclusion technique. Solid tumor cytotoxicity was determined by Leibovitz et al. 's method utilizing crystal violeeOH and read at 562 nm (Molecular Devices). Values for cytotoxicity were expressed as EDs0 g/ml, i.e. the concentration ofthe compound inhibiting 50% ofcell growth. A value of less than 4 µg/ml was required for significant activity ofgrowth inhibition. Incorporation Studies Incorporation of labeled precursors into 3H-DNA, 3H -RNA and 3H -protein for 10 L1210 cells was obtained. The concentration response for inhibition of DNA, RNA and protein synthesis of the compounds at 25, 50 and 100 l.tM was determined for 60 min incubations. Incorporation of 14C -glycine (53.0 mCi/mmol) into purines was obtained by the method of Cadman et al.[12]. Incorporation of 4C- formate (53.0 mCi/mmol) into pyrimidines was determined by the method of Christopherson et al.[13]. Enzyme Assays Inhibition of various enzyme activities was performed by first preparing the appropriate L1210 cell homogenates or subcellular fractions, then adding the drug to be tested during the enzyme assay. For the concentration response studies, inhibition of enzyme activity was determined at 25, 50 and 100 l.tM of compounds G1-2021, G1-2029, GI-2041 and G1-2063 after 60 min incubations. DNA polymerase Ot activity was determined in cytoplasmic extracts isolated by Eichler et aL's method. The DNA polymerase assay was described by Sedwick et al.[15] using 3H-TTP. Messenger-, ribosomal- and transfer-RNA polymerase enzymes were isolated with different concentrations of ammonium sulfate; individual RNA polymerase activities were determined using 3H -UTP 16,17]. Ribonucleoside reductase activity was measured using 4C -CDP with dithioerythritol. The deoxyribonucleotides 4C -dCDP were separated from the ribonucleotides by TLC on PEI plates. […]

[1] = tested on: murine L1210 lymphoid leukemia; type: cell-based, mouse; conditions: for ED50 converted to: converted from μg/ml
Source text: as §1

Compound	IMP dehydrogenase (IMP dehydrogenase; 25 μM)	IMP dehydrogenase (IMP dehydrogenase; 100 μM)	Ribonucleoside reductase (Ribonucleoside reductase; 25 μM)	Ribonucleoside reductase (Ribonucleoside reductase; 50 μM)	cytotoxic activity, in words [1]	ED50 converted to [1]	IMP dehydrogenase (IMP dehydrogenase; 50 μM)	Ribonucleoside reductase (Ribonucleoside reductase; 100 μM)
O=S(=O)(O)c1cc2c(O)c(c1)Cc1cc(S(=O)(=O)O)cc(c1O)Cc1cc(S(=O)(=O)O)cc(c1O)Cc1cc(S(=O)(=O)O)cc(c1O)Cc1cc(S(=O)(=O)O)cc(c1O)Cc1cc(S(=O)(=O)O)cc(c1O)Cc1cc(S(=O)(=O)O)cc(c1O)Cc1cc(S(=O)(=O)O)cc(c1O)C2 [GI-2041]	131+6% of Control	70+4% of Control	127+5% of Control	127+6% of Control	most potent activity	1263 nM		
O=S(=O)(O)c1cc2c(O)c(c1)Cc1cc(S(=O)(=O)O)cc(c1O)Cc1cc(S(=O)(=O)O)cc(c1O)Cc1cc(S(=O)(=O)O)cc(c1O)Cc1cc(S(=O)(=O)O)cc(c1O)Cc1cc(S(=O)(=O)O)cc(c1O)C2 [GI-2029]	270+5% of Control		130+5% of Control	130+6% of Control	most potent activity	1362 nM	184+6% of Control	141+5% of Control
COc1c2cc(S(=O)(=O)[O-])cc1Cc1cc(S(=O)(=O)[O-])cc(c1OC)Cc1cc(S(=O)(=O)[O-])cc(c1OC)Cc1cc(S(=O)(=O)[O-])cc(c1OC)Cc1cc(S(=O)(=O)[O-])cc(c1OC)Cc1cc(S(=O)(=O)[O-])cc(c1OC)Cc1cc(S(=O)(=O)[O-])cc(c1OC)Cc1cc(S(=O)(=O)[O-])cc(c1OC)C2.[Na+].[Na+].[Na+].[Na+].[Na+].[Na+].[Na+].[Na+] [GI-2021]	124+4% of Control		158+6% of Control	124+5% of Control		777 nM		91+5% of Control
